Assay results: PMC7316994, “In Vitro Pharmacological Profile of a New Small Molecule Bradykinin B2 Receptor Antagonist” (Frontiers in Pharmacology, 2020)
Entries after “also recorded” stand apart in the source; their conditions may differ. Read-outs that look alike come from different tables or passages of the source.

Experiments:
[1] = target: Adrenergic β1 (Homo sapiens, UniProt P08588); assay: radioligand binding (Table S2); conditions: read-out: % Inhibition @ 10 µM
[2] = target: T1, Serotonin 5-HT6 (Homo sapiens, UniProt P50406); assay: radioligand binding (Table S2); conditions: [3H] LSD, Human recombinant CHO cells
T1 construct: host or cells: CHO cells

[3] = target: Adrenergic α1A (Homo sapiens, UniProt P35348); assay: radioligand binding (Table S2); conditions: read-out: % Inhibition @ 10 µM
[4] = target: T2, Norepinephrine transporter (Homo sapiens, UniProt P23975); assay: radioligand binding (Table S2); conditions: [3H] Nisoxetine, Human recombinant CHO cells
T2 construct: host or cells: CHO cells

[5] = target: T3, B2 receptor (Homo sapiens, UniProt P30411); assay: Ca^2+ mobilization assay, transfected CHO cells; type: cell-based; parameters: host or cells: CHO cells; conditions: inhibition of response to 0.03 nM BK
T3 sequence (P30411 1-391): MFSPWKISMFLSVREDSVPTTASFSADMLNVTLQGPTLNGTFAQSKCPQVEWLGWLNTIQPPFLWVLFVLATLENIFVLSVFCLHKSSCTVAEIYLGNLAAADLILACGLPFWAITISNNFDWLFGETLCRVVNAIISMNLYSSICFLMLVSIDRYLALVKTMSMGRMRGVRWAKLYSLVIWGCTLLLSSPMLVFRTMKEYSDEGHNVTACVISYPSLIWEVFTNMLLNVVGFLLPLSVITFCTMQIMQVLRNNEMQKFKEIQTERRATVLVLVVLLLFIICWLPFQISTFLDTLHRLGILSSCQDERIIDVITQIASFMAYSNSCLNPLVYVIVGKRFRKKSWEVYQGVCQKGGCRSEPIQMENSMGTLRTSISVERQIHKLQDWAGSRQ

[6] = target: T4, COX1 (Homo sapiens, UniProt P23219); assay: enzyme assay (Table S2); type: biochemical; conditions: Arachidonic acid (3 µM) + ADHP, Fluorimetry
T4 construct: Eurofins (assay provider)

[7] = target: T5, Serotonin 5-HT4 e (Homo sapiens, UniProt Q13639); assay: radioligand binding (Table S2); conditions: [3H] GR 113808, Human recombinant CHO cells
T5 construct: host or cells: CHO cells

[8] = target: T6, Melatonin MT2 (ML1B) (Homo sapiens, UniProt P49286); assay: radioligand binding (Table S2); conditions: [125I] 2-iodomelatonin, Human recombinant CHO cells
T6 construct: host or cells: CHO cells
T6 sequence (P49286 whole entry): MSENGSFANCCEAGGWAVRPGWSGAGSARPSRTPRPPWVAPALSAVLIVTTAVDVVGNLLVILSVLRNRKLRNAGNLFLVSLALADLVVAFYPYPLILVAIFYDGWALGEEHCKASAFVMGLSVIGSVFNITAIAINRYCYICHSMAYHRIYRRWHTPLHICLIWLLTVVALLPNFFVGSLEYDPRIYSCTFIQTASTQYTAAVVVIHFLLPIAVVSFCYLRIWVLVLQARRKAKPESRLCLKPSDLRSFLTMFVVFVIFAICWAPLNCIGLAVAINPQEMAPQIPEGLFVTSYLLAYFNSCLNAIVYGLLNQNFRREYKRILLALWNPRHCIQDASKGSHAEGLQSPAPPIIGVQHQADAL

[9] = target: T7, IRK (InsR) (Homo sapiens, UniProt P06213); assay: enzyme assay (Table S2); type: biochemical; conditions: ATP + Ulight-PolyGAT (50 nM), LANCE
T7 construct: Eurofins (assay provider)
T7 sequence (P06213 28-1382): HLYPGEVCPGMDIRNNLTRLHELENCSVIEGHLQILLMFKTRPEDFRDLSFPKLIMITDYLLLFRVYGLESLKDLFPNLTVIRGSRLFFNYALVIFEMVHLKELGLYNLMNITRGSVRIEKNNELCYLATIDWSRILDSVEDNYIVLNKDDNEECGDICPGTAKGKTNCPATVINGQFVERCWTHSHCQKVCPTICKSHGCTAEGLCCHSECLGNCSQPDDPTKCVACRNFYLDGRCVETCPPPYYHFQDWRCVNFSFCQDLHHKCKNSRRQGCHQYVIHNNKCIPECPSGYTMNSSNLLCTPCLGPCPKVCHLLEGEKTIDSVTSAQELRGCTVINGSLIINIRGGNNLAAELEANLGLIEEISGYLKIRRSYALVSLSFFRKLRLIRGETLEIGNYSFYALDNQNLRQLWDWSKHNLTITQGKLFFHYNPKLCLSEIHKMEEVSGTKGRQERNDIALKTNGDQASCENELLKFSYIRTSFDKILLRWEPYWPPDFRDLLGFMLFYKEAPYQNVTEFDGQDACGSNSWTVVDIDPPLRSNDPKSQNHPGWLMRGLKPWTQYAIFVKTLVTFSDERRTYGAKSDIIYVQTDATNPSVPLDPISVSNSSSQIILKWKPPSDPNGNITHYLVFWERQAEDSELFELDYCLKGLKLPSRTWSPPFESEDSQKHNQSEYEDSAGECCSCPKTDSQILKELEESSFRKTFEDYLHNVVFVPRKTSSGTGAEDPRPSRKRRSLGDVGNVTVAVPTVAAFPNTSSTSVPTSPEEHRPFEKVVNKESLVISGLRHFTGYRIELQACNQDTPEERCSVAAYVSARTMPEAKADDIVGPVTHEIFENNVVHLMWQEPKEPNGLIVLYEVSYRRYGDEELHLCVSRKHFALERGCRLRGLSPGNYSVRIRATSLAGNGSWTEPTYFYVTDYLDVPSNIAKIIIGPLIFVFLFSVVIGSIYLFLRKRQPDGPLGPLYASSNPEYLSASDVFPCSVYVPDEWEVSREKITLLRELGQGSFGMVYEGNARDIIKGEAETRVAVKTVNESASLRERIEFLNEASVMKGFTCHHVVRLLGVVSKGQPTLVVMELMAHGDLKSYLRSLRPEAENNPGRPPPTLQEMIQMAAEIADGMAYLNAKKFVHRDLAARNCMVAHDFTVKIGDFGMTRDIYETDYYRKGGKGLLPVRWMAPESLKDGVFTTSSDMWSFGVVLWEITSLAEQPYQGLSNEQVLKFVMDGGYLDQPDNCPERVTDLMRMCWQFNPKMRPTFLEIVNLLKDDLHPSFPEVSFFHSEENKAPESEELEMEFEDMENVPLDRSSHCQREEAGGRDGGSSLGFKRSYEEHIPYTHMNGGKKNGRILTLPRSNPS

[10] = target: Adenosine A2B (Homo sapiens, UniProt P29275); assay: radioligand binding (Table S2); conditions: read-out: % Inhibition @ 10 µM
[11] = target: T8, Serotonin 5-HT transporter (Homo sapiens, UniProt P31645); assay: radioligand binding (Table S2); conditions: [3H] Imipramine, Human recombinant CHO cells
T8 construct: host or cells: CHO cells

[12] = target: T9, Dopamine D4.2 (Homo sapiens, UniProt P21917, DEL265-296); assay: radioligand binding (Table S2); conditions: [3H] Spiperone, Human recombinant CHO-K1 cells
T9 construct: host or cells: CHO-K1 cells

[13] = target: T10, Melanocortin MC3 (Homo sapiens, UniProt P41968); assay: radioligand binding (Table S2); conditions: [125I] NDP-α-MSH, Human recombinant CHO cells
T10 construct: host or cells: CHO cells

[14] = target: T11, Opioid nociceptin NOP (ORL1) (Homo sapiens, UniProt P41146); assay: radioligand binding (Table S2); conditions: [3H] Nociceptin, Human recombinant HEK-293 cells
T11 construct: host or cells: HEK-293 cells
T11 sequence (P41146 whole entry): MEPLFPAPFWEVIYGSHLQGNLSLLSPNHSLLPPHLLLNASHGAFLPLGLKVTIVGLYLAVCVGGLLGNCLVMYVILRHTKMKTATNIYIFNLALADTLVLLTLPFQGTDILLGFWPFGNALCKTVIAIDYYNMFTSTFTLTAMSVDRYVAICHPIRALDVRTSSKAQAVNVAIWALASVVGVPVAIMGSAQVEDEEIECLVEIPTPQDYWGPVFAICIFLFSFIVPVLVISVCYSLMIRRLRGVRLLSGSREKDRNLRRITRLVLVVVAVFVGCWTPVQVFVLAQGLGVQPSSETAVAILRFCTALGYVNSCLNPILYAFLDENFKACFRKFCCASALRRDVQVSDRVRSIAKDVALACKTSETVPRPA

[15] = target: PDE4D2 (Homo sapiens, UniProt Q08499); assay: enzyme assay (Table S2); type: biochemical; conditions: [3H]cAMP + cAMP (0.5 µM), Scintillation counting
Chain of PDE4D2 (Q08499 303-809 limits assumed): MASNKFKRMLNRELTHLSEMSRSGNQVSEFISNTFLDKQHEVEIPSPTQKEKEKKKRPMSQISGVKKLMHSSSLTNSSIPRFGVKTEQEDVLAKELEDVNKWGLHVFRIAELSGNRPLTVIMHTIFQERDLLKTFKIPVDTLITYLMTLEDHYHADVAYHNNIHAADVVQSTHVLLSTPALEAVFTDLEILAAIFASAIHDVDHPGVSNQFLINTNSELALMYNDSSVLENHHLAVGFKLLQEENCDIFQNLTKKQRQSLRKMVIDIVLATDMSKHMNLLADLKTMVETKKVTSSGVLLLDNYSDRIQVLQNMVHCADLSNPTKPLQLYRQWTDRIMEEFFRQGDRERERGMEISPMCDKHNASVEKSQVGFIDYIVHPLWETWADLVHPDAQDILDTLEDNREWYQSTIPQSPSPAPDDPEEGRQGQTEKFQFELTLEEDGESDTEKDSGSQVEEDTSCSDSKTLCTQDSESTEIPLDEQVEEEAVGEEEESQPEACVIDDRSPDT

[16] = target: T12, Prostanoid EP1 (Homo sapiens, UniProt P34995); assay: radioligand binding (Table S2); conditions: [3H] Prostaglandin E2, Human recombinant HEK-293 cells
T12 construct: host or cells: HEK-293 cells

[17] = target: T13, Serotonin 5-HT3 (Homo sapiens, UniProt P46098); assay: radioligand binding (Table S2); conditions: [3H] BRL 43694, Human recombinant CHO cells
T13 construct: host or cells: CHO cells

[18] = target: T14, Glutamate, metabotropic, mGlu5 (Homo sapiens, UniProt P41594); assay: radioligand binding (Table S2); conditions: [3H] Quisqualic acid, Human recombinant CHO-K1 cells
T14 construct: host or cells: CHO-K1 cells
T14 sequence (P41594 21-1212): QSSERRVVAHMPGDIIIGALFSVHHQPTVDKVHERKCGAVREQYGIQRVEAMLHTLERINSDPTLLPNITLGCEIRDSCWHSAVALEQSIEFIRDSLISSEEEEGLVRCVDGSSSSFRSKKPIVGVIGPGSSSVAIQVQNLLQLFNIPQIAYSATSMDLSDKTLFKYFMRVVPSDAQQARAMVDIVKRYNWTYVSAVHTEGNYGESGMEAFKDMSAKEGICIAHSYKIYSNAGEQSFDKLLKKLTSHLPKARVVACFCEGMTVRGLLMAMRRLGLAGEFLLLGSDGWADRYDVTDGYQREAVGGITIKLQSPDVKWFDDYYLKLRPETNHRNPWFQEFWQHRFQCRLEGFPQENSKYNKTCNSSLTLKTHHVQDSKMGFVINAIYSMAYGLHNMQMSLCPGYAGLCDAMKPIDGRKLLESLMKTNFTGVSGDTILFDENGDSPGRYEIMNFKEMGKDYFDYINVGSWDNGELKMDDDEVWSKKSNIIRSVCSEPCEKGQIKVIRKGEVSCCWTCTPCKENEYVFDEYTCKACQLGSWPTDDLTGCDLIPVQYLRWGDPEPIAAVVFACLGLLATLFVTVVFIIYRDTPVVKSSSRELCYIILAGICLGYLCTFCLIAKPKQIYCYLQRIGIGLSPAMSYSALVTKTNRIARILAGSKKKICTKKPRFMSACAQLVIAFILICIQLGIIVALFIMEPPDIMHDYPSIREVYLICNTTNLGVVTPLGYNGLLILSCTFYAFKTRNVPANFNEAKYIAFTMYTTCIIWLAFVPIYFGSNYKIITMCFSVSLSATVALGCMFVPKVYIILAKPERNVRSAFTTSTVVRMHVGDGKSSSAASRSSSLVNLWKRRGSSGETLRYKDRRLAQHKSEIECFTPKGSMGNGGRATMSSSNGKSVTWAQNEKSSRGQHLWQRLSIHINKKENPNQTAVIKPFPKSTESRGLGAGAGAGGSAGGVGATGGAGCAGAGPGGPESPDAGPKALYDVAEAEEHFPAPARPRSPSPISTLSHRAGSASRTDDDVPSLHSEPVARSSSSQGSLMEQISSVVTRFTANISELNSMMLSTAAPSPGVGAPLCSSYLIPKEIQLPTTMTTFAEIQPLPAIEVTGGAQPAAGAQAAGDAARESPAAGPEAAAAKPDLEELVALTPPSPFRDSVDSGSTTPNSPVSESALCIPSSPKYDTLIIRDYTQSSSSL

[19] = tested on: Thyroid hormone; assay: radioligand binding (Table S2); conditions: [125I] Triiodothyronine, Rat liver
[20] = target: Gamma-aminobutyric acid GABAB1A (Homo sapiens, UniProt Q9UBS5); assay: radioligand binding (Table S2); conditions: read-out: % Inhibition @ 10 µM
Chain of Gamma-aminobutyric acid GABAB1A (Q9UBS5 15-961 limits assumed): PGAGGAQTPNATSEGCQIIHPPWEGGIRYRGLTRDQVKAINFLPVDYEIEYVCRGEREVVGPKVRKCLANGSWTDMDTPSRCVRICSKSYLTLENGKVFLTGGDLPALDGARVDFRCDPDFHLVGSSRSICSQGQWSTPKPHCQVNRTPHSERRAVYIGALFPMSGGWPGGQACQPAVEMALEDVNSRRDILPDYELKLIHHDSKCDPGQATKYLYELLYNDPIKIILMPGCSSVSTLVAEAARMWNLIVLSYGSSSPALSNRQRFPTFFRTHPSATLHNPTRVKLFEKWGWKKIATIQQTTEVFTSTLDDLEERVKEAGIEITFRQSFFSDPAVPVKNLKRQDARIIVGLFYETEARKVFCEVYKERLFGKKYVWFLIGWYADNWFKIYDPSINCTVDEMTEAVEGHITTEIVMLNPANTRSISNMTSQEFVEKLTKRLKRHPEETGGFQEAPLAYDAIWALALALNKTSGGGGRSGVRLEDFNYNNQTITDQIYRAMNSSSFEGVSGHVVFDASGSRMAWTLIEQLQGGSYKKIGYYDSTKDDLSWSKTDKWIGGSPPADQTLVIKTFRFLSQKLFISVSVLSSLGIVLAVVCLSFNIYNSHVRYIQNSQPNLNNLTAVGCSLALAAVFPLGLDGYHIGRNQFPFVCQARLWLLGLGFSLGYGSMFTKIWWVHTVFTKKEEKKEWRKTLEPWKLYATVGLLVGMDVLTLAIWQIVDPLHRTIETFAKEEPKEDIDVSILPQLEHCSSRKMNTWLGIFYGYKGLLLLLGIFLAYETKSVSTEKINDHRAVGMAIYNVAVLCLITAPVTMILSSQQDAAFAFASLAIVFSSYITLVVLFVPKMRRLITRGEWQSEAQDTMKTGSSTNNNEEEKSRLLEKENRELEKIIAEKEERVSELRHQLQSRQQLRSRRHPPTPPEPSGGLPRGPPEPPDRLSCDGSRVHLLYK

[21] = target: T15, prostanoid TP receptor (Homo sapiens, UniProt P21731); assay: umbilical vein, U-46619-induced contraction; conditions: Compound 2 10 μM; Compound 3 1 μM
T15 construct: endogenous human prostanoid TP receptors in the umbilical vein model; from tissue; host or cells: human umbilical vein rings
T15 sequence (P21731 whole entry): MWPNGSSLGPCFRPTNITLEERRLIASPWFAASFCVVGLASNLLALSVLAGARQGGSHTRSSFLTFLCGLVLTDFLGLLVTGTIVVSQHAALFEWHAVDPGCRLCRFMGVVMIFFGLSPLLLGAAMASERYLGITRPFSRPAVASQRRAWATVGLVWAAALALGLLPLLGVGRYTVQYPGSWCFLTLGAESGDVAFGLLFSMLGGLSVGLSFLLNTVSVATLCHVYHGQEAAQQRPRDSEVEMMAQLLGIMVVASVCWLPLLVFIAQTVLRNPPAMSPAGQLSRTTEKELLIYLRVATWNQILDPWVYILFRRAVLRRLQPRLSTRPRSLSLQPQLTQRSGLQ
From the text: The local ethics committee (CHU de Québec-Université Laval) had approved the project (File no. 2017-3720). Umbilical cords were obtained following elective caesarean sections; all problematic deliveries are excluded. Informed consent was obtained from the mothers. The cords were transported from the maternity ward to the laboratory in sterile Hank's balanced salt solution containing penicillin and streptomycin. Segments of umbilical veins were dissected carefully from the cords and a metal rod was inserted in the lumen. Excess connective tissue was excised and rings (2–3 mm wide) were cut. Rings of umbilical veins were suspended in 5-mL organ chambers containing oxygenated (95% O2, 5% CO2) and warmed (37°C) Krebs' solution between a metal hook and a thread loop. This solution had the following composition: NaCl 117.5 mM, KCl 4.7 mM, KH2PO4 1.2 mM, MgSO4 1.18 mM, CaCI2 2.5 mM, NaHCO3 25.0 mM, and D-glucose 5.5 mM. A baseline of one gram-weight was applied to these preparations. Changes of tension were recorded by using isometric transducers (model 52-9545, Harvard Bioscience, South Natick MA). Eight tissue baths are operated in parallel.
For this purpose, contractile responses to serotonin, acting on the 5-HT2A receptor, and U-46619, acting at the prostanoid TP receptor, were measured ([Rogines-Velo et al., 2002]; [Daray et al., 2003]).

[22] = target: T16, kinin B1 receptor (Homo sapiens, UniProt P46663); assay: umbilical vein, Sar-[D-Phe^8]des-Arg^9-BK-induced contraction; conditions: 1 μM
T16 construct: during the 3-hour incubation period to upregulate the expression of B1; from tissue; host or cells: human umbilical vein rings pre-incubated with interleukin-1β and tumor necrosis factor-α

`Cc1cc(-c2ncnn2C)c2cccc(OCc3c(Cl)cc(F)cc3[C@H](C)NC(=O)COC(F)F)c2n1` [Compound 3, (S)-N-(1-(3-chloro-5-fluoro-2-((2-methyl-4-(1-methyl-1H-1,2,4-triazol-5-yl)quinolin-8-yloxy)methyl)phenyl)ethyl)-2-(difluoromethoxy)acetamide] gave an inhibition at 10 µM [1] of 0.3%, an inhibition at 10 µM [2] of -4.5% and an inhibition at 10 µM [3] of 13.3%. The inhibition at 10 µM [4] was 0.9%, the IC50 ([5]; arithmetic mean, read-out: IC50 (nM) Mean) was 2.13 nM and the Kb ([5]; arithmetic mean, read-out: Kb (nM) Mean) was 0.24 nM. For the same molecule, the IC50 ([5]; geometric mean, read-out: IC50 (nM) Geometric mean) was 2.13 nM, the Kb ([5]; geometric mean, read-out: Kb (nM) Geometric mean) was 0.24 nM and the inhibition at 10 µM [6] was -9.3%. It also gave an inhibition at 10 µM [7] of -0.9%, an inhibition at 10 µM [8] of 4.8% and an inhibition at 10 µM [9] of -17.3%. For the same molecule, the inhibition at 10 µM [10] was 3.6%, the inhibition at 10 µM [11] was -23.4% and the inhibition at 10 µM [12] was 2%. It also gave an inhibition at 10 µM [13] of -8.2%, an inhibition at 10 µM [14] of 14.5% and an inhibition at 10 µM [15] of 4.4%. For the same molecule, the inhibition at 10 µM [16] was 80%, the inhibition at 10 µM [17] was 2.1% and the inhibition at 10 µM [18] was -8%. For the same molecule, the “% Inhibition @ 10 µM” value [19] was 6.4%, the inhibition at 10 µM [20] was 8% and the “effect on U-46619-induced contraction” value [21] was “Lack of antagonist effect; also recorded: no functional antagonism was observed”. For the same molecule, the “effect on contraction by B1 receptor agonist Sar-[D-Phe^8]des-Arg^9-BK” value [22] was “failed to antagonize”.
